Assay results: paper PMC7385556 (ACS chemical biology, 2020)
“And” between values parts separate entries of the source, which are not always exact repeats. Identical values can stand only once.

System: Mtb H37Rv mc^2 6230
Test: MIC of compounds alone against Mtb H37Rv mc^2 6230
Format: cell-based, Mycobacterium tuberculosis
Conditions: compound alone, absence of KAN

NC[C@H]1O[C@H](O[C@H]2[C@H](O)[C@@H](O[C@H]3O[C@H](CO)[C@@H](O)[C@H](N)[C@H]3O)[C@H](N)C[C@@H]2N)[C@H](O)[C@@H](O)[C@@H]1O [KAN, kanamycin]
H37Rv mc^2 6230 MIC: <1 μg/mL and <1.72 μM
